Data on 15 compounds can be found in US20090203577A1 (EXELIXIS, INC., priority 2005, published 2009).

Values after ≈ are worked out from the molar mass of the structure shown.

One data set deals with male LDLR−/− mice. Put plainly: Compound effects in diet-induced hyperlipidemic LDLR-/- mice (plasma triglyceride and cholesterol). The class given is in vivo, mouse. The method, then:
Young adult male mice (˜8 weeks of age) were purchased from conventional vendors and group housed (3-4/cage) with ad libitum access to chow and water, in a temperature- and light-controlled vivarium (lights on at 06:00 hours, off at 18:00 hours). Compounds were administered daily by oral gavage in the morning (˜08:00 hrs), in a final volume of 0.1 ml/mouse, with the first dose of compound delivered on study day 0. Compounds were solubilized by gentle mixing in PEG400:Tween80 (4:1) for at least several hours and usually overnight prior to initiation of dosing. When necessary, solutions were sonicated briefly to ensure complete compound solubilization.
Blood samples (˜0.15 ml/mouse) were obtained from the retro-orbital sinus of non-fasted isoflurane-anesthetized mice, 3 hours after drug dosing. Blood samples were collected into heparin-coated tubes, and plasma was recovered following centrifugation. Plasma total cholesterol and triglyceride levels were determined by […] enzymatic commercially available assays that were adapted to 96-well plate formats. Plasma HDL cholesterol (HDL-C) was determined by removing non-HDL-C from the plasma with a precipitating reagent, and then determining the plasma cholesterol levels in the remaining HDL-C fraction. Plasma triglycerides concentrations, determined from a blood sample obtained in the 24 hours prior to the first dose, were used to group the mice such that the pre-study triglyceride levels between groups were equivalent prior to initiation of the dosing regimen.
Male LDLR^−/− mice (JAX Mice, Bar Harbor, Me.) consumed a purified “Western” diet (˜21% fat, 0.02% cholesterol w/w) ad libitum, for two weeks prior to and during treatment with Compound C daily by oral gavage at a dose of 10 mg/kg/day for 7 days (n=9-10/group).
In a separate study utilizing the same mouse model ([…]) subjected to the dietary lead-in for 8 weeks, LDLR^−/− mice were treated with Compound B at a dose of 10 mg/kg/day for 6 weeks.

Data set [1] concerns patients with hypertriglyceridemia. The note with it: cited from earlier work.
In data set [2] the target is T1, human farnesoid X receptor (Homo sapiens, UniProt Q96RI1).
T1 construct: CMX-farnesoid X receptor (full length human farnesoid X receptor); expressed in transfected cells; host or cells: CV-1 African Green Monkey Kidney cells
T1 sequence (Q96RI1 1-472 isoform Q96RI1-2): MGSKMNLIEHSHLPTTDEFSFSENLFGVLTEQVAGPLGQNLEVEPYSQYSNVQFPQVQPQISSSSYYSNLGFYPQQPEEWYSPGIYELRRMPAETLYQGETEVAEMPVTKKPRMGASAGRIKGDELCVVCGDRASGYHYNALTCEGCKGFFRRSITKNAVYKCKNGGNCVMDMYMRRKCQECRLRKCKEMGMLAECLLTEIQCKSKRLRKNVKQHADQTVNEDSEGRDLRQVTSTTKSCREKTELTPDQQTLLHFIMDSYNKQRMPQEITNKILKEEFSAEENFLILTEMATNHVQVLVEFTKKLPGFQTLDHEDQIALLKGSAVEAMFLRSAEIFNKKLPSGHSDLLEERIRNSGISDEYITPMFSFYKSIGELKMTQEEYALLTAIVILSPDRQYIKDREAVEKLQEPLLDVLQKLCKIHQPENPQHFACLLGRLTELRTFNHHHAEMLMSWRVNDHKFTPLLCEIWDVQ
T1 sequence (P19793 1-462 partner): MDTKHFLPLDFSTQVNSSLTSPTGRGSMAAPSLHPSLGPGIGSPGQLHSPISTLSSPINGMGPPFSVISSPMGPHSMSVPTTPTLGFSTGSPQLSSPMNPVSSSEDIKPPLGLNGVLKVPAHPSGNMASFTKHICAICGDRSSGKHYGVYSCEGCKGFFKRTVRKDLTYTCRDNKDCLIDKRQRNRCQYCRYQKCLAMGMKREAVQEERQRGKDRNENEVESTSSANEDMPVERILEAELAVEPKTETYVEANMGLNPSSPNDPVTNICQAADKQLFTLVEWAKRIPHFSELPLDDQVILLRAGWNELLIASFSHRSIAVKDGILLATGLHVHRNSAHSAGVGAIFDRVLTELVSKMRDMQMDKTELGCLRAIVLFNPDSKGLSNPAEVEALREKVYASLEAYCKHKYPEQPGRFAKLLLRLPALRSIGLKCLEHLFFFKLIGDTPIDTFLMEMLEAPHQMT
Put plainly: FXR in vitro assays (farnesoid X receptor/ECREx7 co-transfection assay, TR-FRET assay), Table I. The class given is cell-based. The note with it: for EC50: agonist activity, one or more of the in vitro assays, read-out: EC50; for Emax: read-out: % Efficacy. The method in brief: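 CV-1 monkey kidney cells transfected for an FXR/ECREx7 luciferase co-transfection reporter; luciferase read 18-20 h later in lysates. 8-point dose-response at ½-log spacing, 4 wells per point; EC50/IC50 from four-parameter Hill fit, averaged over at least 3 independent experiments.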
On the technique in general: In TR-FRET formats the signal depends on donor and acceptor labels being close together.

The next data set in a line: physchem. The note with it: pH 7.4, aqueous buffer, kinetic from dmso stock.
[3] abbreviates: Western diet 8 weeks lead-in, 10 mg/kg/day for 6 weeks.

For orientation: EC50 means the midpoint of the concentration-response curve. A word on the kinetic solubility: it is solubility judged after dilution from a stock solution rather than from solid.

For the compound `CCOC(=O)C1=CN(C(=O)c2ccc(F)c(F)c2)CC(C)(C)c2c1[nH]c1ccccc21` [Compound B, Ethyl 3-(3,4-difluorobenzoyl)-1,1-dimethyl-1,2,3,6-tetrahydro-azepino[4,5-b]indole-5-carboxylate], in the data set on male LDLR−/− mice (setting [3]), the plasma cholesterol concentrations result was “lowered” and the plasma triglyceride concentrations entry is recorded as “lowered”.

Regarding `CC(C)OC(=O)C1=CN(C(=O)c2ccc(F)c(F)c2)CC(C)(C)c2c1[nH]c1ccccc21` [Compound C, isopropyl 3-(3,4-difluorobenzoyl)-1,1-dimethyl-1,2,3,6-tetrahydroazepino[4,5-b]indole-5-carboxylate], the plasma triglyceride concentrations entry in the data set on male LDLR−/− mice (Western diet 2 weeks lead-in, 10 mg/kg/day oral gavage, study day 7) was “reduced plasma triglyceride concentrations to the level observed prior to introduction of the high-fat chow”. In addition, in the data set with male LDLR−/− mice (Western diet 2 weeks lead-in, 10 mg/kg/day oral gavage, study day 7, p<0.05 vs. vehicle), the “lowering of plasma total cholesterol levels” value is listed as approximately 40%. Also, the plasma lipid profiles entry in the data set on male LDLR−/− mice (daily dosing throughout the 6 weeks of study, continued Western diet) was “sustained normalization”.

With `C[C@H](CCC(=O)O)[C@H]1CC[C@H]2[C@@H]3[C@H](O)C[C@@H]4C[C@H](O)CC[C@]4(C)[C@H]3CC[C@]12C` [CDCA, chenodeoxycholic acid], the plasma triglyceride levels result in data set [1] was “significantly lowers”.

As to `CC(C)OC(=O)C1=CN(C(=O)N2CCNCC2)CC(C)(C)c2c1[nH]c1ccccc21` [Example 26, 1-methylethyl 1,1-dimethyl-3-(piperazin-1-ylcarbonyl)-1,2,3,6-tetrahydroazepino [4,5-b]indole-5-carboxylate], in data set [2], the EC50 lay within 1000 to 10000 nM and the Emax was more than 100%. The solubility (kinetic) at 1.5 h in “physchem” is more than 10 µM.

Turning to `Cc1cccc(C(=O)N2C=C(C(=O)OC(C)C)c3[nH]c4ccccc4c3C(C)(C)C2)c1` [Example 86, 1-methylethyl 1,1-dimethyl-3-[(3-methylphenyl)carbonyl]-1,2,3,6-tetrahydroazepino[4,5-b]indole-5-carboxylate], in data set [2], the EC50 was 1 to 10 nM and the Emax is more than 100%. In addition, the kinetic solubility at 1.5 h in the data set “physchem” was in the range of 1 to 10 µM (≈ 0.417 to 4.17 µg/mL).

Take `CC(C)OC(=O)C1=CN(C(=O)c2cccc(F)c2)CC(C)(C)c2c1[nH]c1ccccc21` [Example 72, 1-methylethyl 3-[(3-fluorophenyl)carbonyl]-1,1-dimethyl-1,2,3,6-tetrahydroazepino[4,5-b]indole-5-carboxylate]: in data set [2], the EC50 is 1 to 10 nM and the Emax is more than 100%. For the same compound, in “physchem”, the solubility (kinetic) at 1.5 h is 1 to 10 µM (≈ 0.42 to 4.2 µg/mL).

Regarding `CC(C)OC(=O)C1=CN(C(=O)c2ccccc2Br)CC(C)(C)c2c1[nH]c1ccccc21` [Example 67, 1-methylethyl 3-[(2-bromophenyl)carbonyl]-1,1-dimethyl-1,2,3,6-tetrahydroazepino[4,5-b]indole-5-carboxylate], in data set [2], the EC50 lay within 10 to 100 nM and the Emax was more than 100%. In “physchem”, this compound displayed a solubility (kinetic) at 1.5 h of 1 to 10 µM (≈ 0.481 to 4.81 µg/mL).

As to `CCC(=O)N1C=C(C(=O)OC(C)C)c2[nH]c3ccccc3c2C(C)(C)C1` [Example 19], in data set [2], the EC50 fell in the range of 100 to 1000 nM and the Emax was more than 100%. In the data set “physchem”, this compound registered a solubility (kinetic) at 1.5 h of more than 10 µM.

Regarding `CC(CO)OC(=O)C1=CN(C(=O)c2ccc(F)c(F)c2)CC(C)(C)c2c1[nH]c1ccccc21` (stereo not drawn) [Example 193, 2-hydroxy-1-methylethyl 3-[(3,4-difluorophenyl)carbonyl]-1,1-dimethyl-1,2,3,6-tetrahydroazepino[4,5-b]indole-5-carboxylate], in data set [2], the EC50 was 10 to 100 nM and the Emax is more than 100%. In “physchem”, the kinetic solubility at 1.5 h lay in the range of 1 to 10 µM (≈ 0.454 to 4.54 µg/mL).

In the case of `CC(C)OC(=O)C1=CN(C(=O)C2CCN(C)CC2)CC(C)(C)c2c1[nH]c1ccccc21` [Example 6, 1-methylethyl 1,1-dimethyl-3-[(1-methylpiperidin-4-yl)carbonyl]-1,2,3,6-tetrahydroazepino[4,5-b]indole-5-carboxylate], in data set [2], the half-maximal effective concentration (EC50) was 1000 to 10000 nM and the Emax was more than 100%. The same compound registered a kinetic solubility at 1.5 h in “physchem” of 0.1 to 1 µM (≈ 0.0424 to 0.424 µg/mL).

Consider `CC(C)OC(=O)C1=CN(C(=O)c2ccc(Cl)cc2)CC(C)(C)c2c1[nH]c1ccccc21` [Example 82, 1-methylethyl 3[(4-chlorophenyl)carbonyl]-1,1-dimethyl-1,2,3,6-tetrahydroazepino[4,5-b]indole-5-carboxylate], for which, in data set [2], the half-maximal effective concentration (EC50) fell in the range of 10 to 100 nM and the Emax was more than 100%. The compound also returned a kinetic solubility at 1.5 h in the data set “physchem” of 1 to 10 µM (≈ 0.437 to 4.37 µg/mL).

`CC(C)OC(=O)C1=CN(C(=O)N2CCN(CC(=O)N3CCCC3)CC2)CC(C)(C)c2c1[nH]c1ccccc21` [Example 37, 1-methylethyl 1,1-dimethyl-3-{[4-(2-oxo-2-pyrrolidin-1-ylethyl)piperazin-1-yl]carbonyl}-1,2,3,6-tetrahydroazepino [4,5-b]indole-5-carboxylate]: in data set [2], the concentration giving a half-maximal response (EC50) is 100 to 1000 nM and the Emax was more than 100%. In addition, the solubility (kinetic) at 1.5 h in the data set “physchem” was more than 10 µM.

As for `CCN(CC)CCN1CCN(C(=O)N2C=C(C(=O)OC(C)C)c3[nH]c4ccccc4c3C(C)(C)C2)CC1` [Example 38, 1-methylethyl 3-({4-[2-(diethylamino)ethyl]piperazin-1-yl}carbonyl)-1,1-dimethyl-1,2,3,6-tetrahydroazepino[4,5-b]indole-5-carboxylate], in data set [2], the EC50 lay in the range of 1000 to 10000 nM and the Emax is 60 to 80%. In “physchem”, this compound showed a solubility (kinetic) at 1.5 h of more than 10 µM.

As to `CC(C)OC(=O)C1=CN(C(=O)N2CCC[C@H](CN3CCCCC3)C2)CC(C)(C)c2c1[nH]c1ccccc21` [Example 58], in data set [2], the concentration giving a half-maximal response (EC50) lay in the range of 1000 to 10000 nM and the Emax fell in the range of 80 to 100%. Besides, the kinetic solubility at 1.5 h in the data set “physchem” was more than 10 µM.

As to `CC(C)OC(=O)C1=CN(C(=O)N2CCN(CC3CCN(C)CC3)CC2)CC(C)(C)c2c1[nH]c1ccccc21` [Example 29, 1-methylethyl 1,1-dimethyl-3-({4-[(1-methylpiperidin-4-yl)methyl]piperazin-1-yl}carbonyl)-1,2,3,6-tetrahydroazepino [4,5-b]indole-5-carboxylate], in data set [2], the concentration for a half-maximal effect (EC50) was 1000 to 10000 nM and the Emax lay within 40 to 60%. The same compound came in with a solubility (kinetic) at 1.5 h in “physchem” of more than 10 µM.
